pIC50: −log10 of the molar value.

Data set [1] concerns Shiga toxin (Stx-1 and/or Stx-2). The data set is classed as cell-based, E. coli.
The test system of data set [2] is RSV. The data set can be described thus: Antiviral activity, Hep2 cells with RSV. The data set is classed as cell-based. Particulars: for Selectivity index: CC50/CI50; for pIC50: human respiratory syncytial virus, HEp-2, MOI 0.2, fixation at 72 hours, read-out: CI50 (the source's name).
The nature of data set [3]: Toxicity (cell number) in MRC5 cells. Particulars: human.
The nature of data set [4]: Toxicity (cell number) in RK13 cells. Particulars: rabbit.
A short description of data set [5]: Toxicity (cell number) in HeLa cells. Particulars: human.
The subject of data set [6] is Myxomavirus T1-ANCHOR. Briefly: Antiviral activity, RK13 cells with Myxomavirus T1-ANCHOR. Particulars: for Selectivity index: RK13/MyxV T1, CC50/CI50; for pIC50: RK-13, 144 h, RK13/MyxV T1, MOI 0.05, fixation at 6 days, read-out: CI50 (the source's name). The data set is classed as cell-based.
Data set [7] in a line: Toxicity (cell number) in Hep2 cells. The settings on record: human.
For data set [8], the system named is VACV-ANCHOR. The data set can be described thus: microbe, parasite or virus in culture. Particulars: for Selectivity index: HeLa/VacV, CC50/CI50; for pIC50: Orthopoxvirus vaccinia, HeLa, 48 h, read-out: CI50. The data set is classed as cell-based, Vaccinia virus.
The test system of data set [9] is hCMV-ANCHOR. Briefly: Antiviral activity, MRC5 cells with hCMV-ANCHOR. The class given is cell-based. The settings on record: for Selectivity index: CC50/CI50; for pIC50: Human betaherpesvirus 5, 144 h, MOI 1, fixation at 6 days, read-out: CI50 (the source's name).

As for `Cc1nc(-c2ccc(C3N(C)c4ccc(F)cc4C(=O)N3c3cccc(O)c3O)s2)cs1` (stereo not shown) [Compound 7], the pIC50 in [1] was 7.39.
On the same count and under the same terms, as for `Cc1nc(-c2ccc(C3N(C)c4ccc(F)cc4C(=O)N3c3cccc(O)c3)s2)cs1` (stereo not shown) [Compound 3], the figure is 7.26.
By CC50 is commonly meant the concentration giving 50% cytotoxicity. Read a low CC50 as harm at low concentration. As to `Cc1nc(-c2ccc(C3N(C)c4ccc(F)cc4C(=O)N3c3ccccc3)s2)cs1` (stereo not shown) [Retro-2.1], the Selectivity index in [2] was 309; in data set [6] it was 45; in data set [8] it was 1,323; in [9] it was 4,310. Also, the pIC50 in [2] was 6.79; in [6], 7.13; in data set [1], 7.00; in data set [8] it was 7.42; in [9] it was 7.94. Further, the CC50 at 72 h in data set [3] was greater than 50000 nM; in data set [4] it was 3350 nM; in [5], greater than 50000 nM; in data set [7] it was greater than 50000 nM.
Consider `Cc1nc(-c2ccc(C3N(C)c4ccc(F)cc4C(=O)N3c3ccccc3O)s2)cs1` (stereo not shown) [Compound 2], for which the Selectivity index was 1,880 in data set [2], 8,947 in data set [8] and 21,000 in data set [9]. For the same molecule, the pIC50 was 7.70 in data set [2]; 7.85 in data set [6]; 7.70 in data set [1]; 8.44 in data set [8]; greater than 9.00 in data set [9]. Besides, the CC50 at 72 h was found to be 21000 nM in data set [3], 32300 nM in [5] and 37600 nM in [7].
On to `Cc1nc(-c2ccc(C3N(C)c4ccccc4C(=O)N3c3ccccc3N)s2)cs1` (stereo not shown) [Compound 4], for which the pIC50 in data set [1] was 7.10.
With `Cc1nc(-c2ccc(C3N(C)c4ccc(F)cc4C(=O)N3c3ccc(O)cc3)s2)cs1` (stereo not shown) [Compound 6], the Selectivity index in [2] is given as 12; in data set [6] it was 2; in data set [8], 32; in [9], 59. For the same molecule, the pIC50 in data set [2] is 5.66; in data set [6], 5.24; in data set [1] it was 6.32; in data set [8], 6.20; in [9], 6.55. Also, the CC50 at 72 h in data set [3] was found to be 16700 nM; in [4], 12900 nM; in [5] it was 20400 nM; in [7], 25600 nM.
For the molecule `Cc1nc(-c2ccc(C3N(C)c4ccc(F)cc4C(=O)N3c3ccccc3N)s2)cs1` (stereo not shown) [Compound 1], the CC50 at 72 h in [3] was 21500 nM; in data set [4], 7460 nM; in data set [5], greater than 50000 nM; in data set [7], greater than 50000 nM. Besides, the Selectivity index in [6] was 5,181; in [8] it was 47,619; in data set [9], 21,500. The pIC50 in [6] was 8.84; in data set [1], 7.85; in data set [8] it was 8.98; in [9], greater than 9.00.
Turning to `Cc1nc(-c2ccc(C3N(C)c4ccc(F)cc4C(=O)N3c3ccccc3S(N)(=O)=O)s2)cs1` (stereo not shown) [Compound 5], the pIC50 in data set [1] is 7.46.
